From ChEMBL document CHEMBL1201862, “PubChem BioAssay data set” (2004)
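Each compound was tested at five concentrations against cells in 96-well plates for 48 hours. At the GI50, growth is halved.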 Activity calls are given as the source filed them. Cut-off read from the data, not from the text of the source: active = GI50 up to about 1.1 µM and inactive = higher.

Key:
Test in all cases: DTP human tumour cell line panel, 48 h
A498 = test system: A498
CAKI-1 = test system: CAKI-1
CCRF-CEM = test system: CCRF-CEM
COLO 205 = test system: COLO 205
HCT-116 = test system: HCT-116
HL-60 = test system: HL-60
KM12 = test system: KM12
MDA-MB-435 = test system: MDA-MB-435
MOLT-4 = test system: MOLT-4
Malme-3M = test system: Malme-3M
OVCAR-3 = test system: OVCAR-3
OVCAR-4 = test system: OVCAR-4
OVCAR-5 = test system: OVCAR-5
OVCAR-8 = test system: OVCAR-8
PC-3 = test system: PC-3
RPMI-8226 = test system: RPMI-8226
SF-268 = test system: SF-268
SK-MEL-28 = test system: SK-MEL-28
TK-10 = test system: TK-10
HCC 2998 = test system: HCC 2998

Measured: GI50

C[N+](CCCl)(CCCl)Cc1cccc2cccc([N+](=O)[O-])c12
inactive: A498 > 100 µM | CAKI-1 31 µM | CCRF-CEM 73.6 µM | COLO 205 25.8 µM | HCT-116 > 100 µM | HL-60 45.1 µM | KM12 > 100 µM | MDA-MB-435 > 100 µM | MOLT-4 60.5 µM | Malme-3M 81.1 µM | OVCAR-3 44.7 µM | OVCAR-4 57.7 µM | OVCAR-5 > 100 µM | OVCAR-8 43.5 µM | PC-3 85.3 µM | RPMI-8226 40.5 µM | SF-268 > 100 µM | SK-MEL-28 > 100 µM | TK-10 > 100 µM

O=C(CCN1CCCCC1)c1csc2ccccc12
inactive: A498 > 100 µM | CAKI-1 > 100 µM | COLO 205 > 100 µM | HCT-116 > 100 µM | KM12 33.1 µM | MDA-MB-435 > 100 µM | MOLT-4 61.2 µM | Malme-3M > 100 µM | OVCAR-3 > 100 µM | OVCAR-4 > 100 µM | OVCAR-5 > 100 µM | OVCAR-8 > 100 µM | PC-3 > 100 µM | RPMI-8226 10.1 µM | SF-268 > 100 µM | SK-MEL-28 > 100 µM | TK-10 94.6 µM

CCOC(=O)C(NC(=O)c1ccccc1)(N1CCOCC1)C(F)(F)F (configuration not stated)
inactive: CAKI-1 > 100 µM | CCRF-CEM > 100 µM | COLO 205 > 100 µM | HCC 2998 > 100 µM | HCT-116 > 100 µM | HL-60 > 100 µM | KM12 > 100 µM | MDA-MB-435 > 100 µM | MOLT-4 > 100 µM | Malme-3M > 100 µM | OVCAR-3 > 100 µM | OVCAR-4 > 100 µM | OVCAR-5 > 100 µM | OVCAR-8 > 100 µM | PC-3 > 100 µM | RPMI-8226 > 100 µM | SF-268 > 100 µM | SK-MEL-28 > 100 µM | TK-10 > 100 µM

COC(=O)C[C@@H]1C(C)(C)[C@@H]2O[C@@]34C[C@@H]2C(=O)[C@]1(C)[C@H]3CC[C@@]1(C)[C@H](c2ccoc2)OC(=O)C[C@]14O
inactive: A498 > 100 µM | CAKI-1 > 100 µM | CCRF-CEM > 100 µM | COLO 205 > 100 µM | HCT-116 > 100 µM | HL-60 > 100 µM | KM12 > 100 µM | MDA-MB-435 > 100 µM | MOLT-4 > 100 µM | Malme-3M > 100 µM | OVCAR-3 > 100 µM | OVCAR-4 > 100 µM | OVCAR-5 > 100 µM | OVCAR-8 > 100 µM | PC-3 > 100 µM | RPMI-8226 > 100 µM | SF-268 > 100 µM | SK-MEL-28 > 100 µM | TK-10 > 100 µM

C1COCCOP2(N3CC3)=NP(N3CC3)(=NP(N3CC3)(N3CC3)=N2)OCCOCCO1 (configuration not stated)
inactive: A498 > 100 µM | CAKI-1 > 100 µM | CCRF-CEM 77.3 µM | COLO 205 > 100 µM | HCT-116 > 100 µM | HL-60 > 100 µM | KM12 > 100 µM | MDA-MB-435 > 100 µM | MOLT-4 > 100 µM | Malme-3M > 100 µM | OVCAR-3 > 100 µM | OVCAR-4 > 100 µM | OVCAR-5 > 100 µM | OVCAR-8 > 100 µM | PC-3 > 100 µM | RPMI-8226 > 100 µM | SF-268 > 100 µM | TK-10 > 100 µM

O=C1NCN(c2ccccc2)C12CCN(CCc1ccc3[nH]c(=S)[nH]c3c1)CC2
inactive: A498 53.6 µM | CAKI-1 > 100 µM | CCRF-CEM 3.15 µM | COLO 205 16.3 µM | HCT-116 43 µM | HL-60 29.1 µM | KM12 27.9 µM | MDA-MB-435 17.3 µM | MOLT-4 41.4 µM | Malme-3M 15.6 µM | OVCAR-3 48 µM | OVCAR-4 > 100 µM | OVCAR-5 > 100 µM | OVCAR-8 51.9 µM | PC-3 24.3 µM | RPMI-8226 22.3 µM | SF-268 56.9 µM | SK-MEL-28 4.12 µM | TK-10 24.7 µM

CC(=O)/N=C1\NC(=O)/C(=C/c2ccccc2Cl)N1C
inactive: CAKI-1 > 100 µM | CCRF-CEM > 100 µM | COLO 205 > 100 µM | HCC 2998 > 100 µM | HCT-116 > 100 µM | HL-60 > 100 µM | KM12 > 100 µM | MDA-MB-435 > 100 µM | MOLT-4 > 100 µM | OVCAR-3 > 100 µM | OVCAR-4 > 100 µM | OVCAR-5 > 100 µM | OVCAR-8 > 100 µM | PC-3 > 100 µM | SF-268 > 100 µM | SK-MEL-28 > 100 µM | TK-10 > 100 µM

OCCc1ccsc1-c1sc(-c2cc(CCO)c(-c3sccc3CCO)s2)cc1CCO
inactive: A498 22.5 µM | CAKI-1 22.8 µM | CCRF-CEM 16.4 µM | COLO 205 11.6 µM | HCC 2998 12.5 µM | HCT-116 16.6 µM | KM12 3.38 µM | MDA-MB-435 17.7 µM | MOLT-4 7.89 µM | Malme-3M 11.1 µM | OVCAR-3 18.1 µM | OVCAR-4 15.6 µM | OVCAR-5 17.1 µM | OVCAR-8 15.7 µM | PC-3 11.8 µM | RPMI-8226 5.05 µM | SF-268 5.42 µM | SK-MEL-28 18.5 µM | TK-10 19.5 µM

CCOc1ccc(-n2nnc3c(N)nc(N)nc32)cc1
inactive: A498 > 100 µM | CAKI-1 > 100 µM | CCRF-CEM > 100 µM | COLO 205 > 100 µM | HCT-116 > 100 µM | HL-60 > 10 µM | KM12 > 100 µM | MDA-MB-435 > 100 µM | MOLT-4 > 100 µM | Malme-3M > 100 µM | OVCAR-3 > 100 µM | OVCAR-4 > 100 µM | OVCAR-5 > 100 µM | OVCAR-8 > 100 µM | PC-3 > 100 µM | RPMI-8226 > 100 µM | SK-MEL-28 > 100 µM | TK-10 > 100 µM

O=C(NN=C1NCCCN1)c1ccco1
inactive: CCRF-CEM > 100 µM | COLO 205 > 100 µM | HCC 2998 > 100 µM | HCT-116 > 100 µM | HL-60 > 100 µM | KM12 > 100 µM | MDA-MB-435 > 100 µM | MOLT-4 > 100 µM | Malme-3M > 100 µM | OVCAR-3 > 100 µM | OVCAR-4 > 100 µM | OVCAR-5 > 100 µM | OVCAR-8 > 100 µM | PC-3 > 100 µM | RPMI-8226 > 100 µM | SF-268 > 100 µM | SK-MEL-28 > 100 µM | TK-10 > 100 µM

COc1cc(Cc2cnc(N)nc2N)cc(OC)c1OCCCNc1ccc([N+](=O)[O-])cc1
inactive: A498 14.9 µM | CAKI-1 33.2 µM | CCRF-CEM 9.35 µM | COLO 205 12.2 µM | HCC 2998 14.5 µM | HCT-116 12.6 µM | KM12 14.4 µM | MDA-MB-435 13.8 µM | MOLT-4 2.72 µM | Malme-3M 12.7 µM | OVCAR-3 14.5 µM | OVCAR-4 15.8 µM | OVCAR-5 19 µM | OVCAR-8 14.3 µM | PC-3 10.1 µM | SF-268 22.9 µM | SK-MEL-28 13.9 µM | TK-10 14.3 µM

O=C1C(=Cc2ccc(O)cc2)N=C(c2ccccc2)N1n1c(-c2ccccc2)nc2ccccc2c1=O
inactive: CAKI-1 > 100 µM | CCRF-CEM 32 µM | COLO 205 > 100 µM | HCC 2998 > 100 µM | HCT-116 > 100 µM | HL-60 40.6 µM | KM12 > 100 µM | MDA-MB-435 > 100 µM | MOLT-4 78.7 µM | Malme-3M > 100 µM | OVCAR-8 > 100 µM | PC-3 34.8 µM | RPMI-8226 46.1 µM | SF-268 > 100 µM | SK-MEL-28 88.9 µM | TK-10 > 100 µM

O=c1oc(-c2ccccc2)c(-c2ccccc2)n1-c1ccc(Br)cc1
inactive: A498 26.2 µM | CAKI-1 > 100 µM | CCRF-CEM 93.8 µM | COLO 205 > 100 µM | HCT-116 49.7 µM | HL-60 39.5 µM | KM12 37.4 µM | MDA-MB-435 > 100 µM | MOLT-4 > 100 µM | OVCAR-3 47.5 µM | OVCAR-4 27 µM | OVCAR-5 > 100 µM | OVCAR-8 29.2 µM | PC-3 > 100 µM | SF-268 55 µM | SK-MEL-28 > 100 µM | TK-10 31.8 µM

COC(=O)[C@@]12CC3CN(Cc4c1[nH]c1ccccc41)C2CC3=O
inactive: CAKI-1 > 100 µM | CCRF-CEM > 100 µM | COLO 205 > 100 µM | HCC 2998 > 100 µM | HCT-116 > 100 µM | HL-60 > 100 µM | KM12 > 100 µM | MDA-MB-435 > 100 µM | MOLT-4 > 100 µM | Malme-3M > 100 µM | OVCAR-3 > 100 µM | OVCAR-4 > 100 µM | OVCAR-5 > 100 µM | OVCAR-8 > 100 µM | PC-3 > 100 µM | RPMI-8226 > 100 µM | SF-268 > 100 µM | SK-MEL-28 > 100 µM | TK-10 > 100 µM

Cc1nc2ccc(S(=O)(=O)Nc3ccc(Cl)cc3)cc2c(=O)n1NC(=O)CNc1ccc(Cl)cc1
inactive: CAKI-1 > 100 µM | CCRF-CEM > 100 µM | COLO 205 > 100 µM | HCC 2998 > 100 µM | HCT-116 > 100 µM | HL-60 > 100 µM | KM12 64 µM | MDA-MB-435 > 100 µM | MOLT-4 > 100 µM | Malme-3M > 100 µM | OVCAR-3 > 100 µM | OVCAR-4 > 100 µM | OVCAR-5 > 100 µM | OVCAR-8 > 100 µM | PC-3 > 100 µM | RPMI-8226 > 100 µM | SF-268 > 100 µM | SK-MEL-28 > 100 µM | TK-10 > 100 µM
